Test results as given in ChEMBL document CHEMBL1201862, “PubChem BioAssay data set” (2004).
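Five concentrations, 48 hours, 96-well plates. GI50: concentration for 50% inhibition of growth.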 Active and inactive are the calls of the source. Cut-off read from the data, not from the text of the source: active = GI50 up to about 1.1 µM and inactive = higher.

Experiments:
Test in all cases: inhibition of tumour cell growth, NCI panel, 48 h
NCI-H23 = system: NCI-H23
CAKI-1 = system: CAKI-1
K562 = system: K562
A549 = system: A549
PC-3 = system: PC-3
HT-29 = system: HT-29
OVCAR-4 = system: OVCAR-4
IGROV-1 = system: IGROV-1
MOLT-4 = system: MOLT-4
SF-539 = system: SF-539
HOP-92 = system: HOP-92
SNB-75 = system: SNB-75
786-0 = system: 786-0
ACHN = system: ACHN
MDA-MB-435 = system: MDA-MB-435
UACC-62 = system: UACC-62
MCF7 = system: MCF7
HCT-15 = system: HCT-15
MDA-MB-231 = system: MDA-MB-231
HL-60 = system: HL-60
HCT-116 = system: HCT-116
TK-10 = system: TK-10
DU-145 = system: DU-145
Hs-578T = system: Hs-578T
OVCAR-8 = system: OVCAR-8
KM12 = system: KM12
SN12C = system: SN12C
NCI/ADR-RES = system: NCI/ADR-RES
SK-MEL-5 = system: SK-MEL-5
NCI-H226 = system: NCI-H226
SW-620 = system: SW-620
U-251 = system: U-251
OVCAR-3 = system: OVCAR-3
SF-295 = system: SF-295
SK-MEL-2 = system: SK-MEL-2
M14 = system: M14
NCI-H522 = system: NCI-H522
OVCAR-5 = system: OVCAR-5
UACC-257 = system: UACC-257
A498 = system: A498
SF-268 = system: SF-268
UO-31 = system: UO-31
HOP-62 = system: HOP-62
NCI-H460 = system: NCI-H460
T47D = system: T47D
RXF 393 = system: RXF 393
COLO 205 = system: COLO 205
RPMI-8226 = system: RPMI-8226
SK-OV-3 = system: SK-OV-3
SK-MEL-28 = system: SK-MEL-28
SNB-19 = system: SNB-19
Malme-3M = system: Malme-3M
EKVX = system: EKVX
LOX IMVI = system: LOX IMVI
HCC 2998 = system: HCC 2998
SR = system: SR
CCRF-CEM = system: CCRF-CEM

Measured: GI50

N=C(CSSCC(=N)NCC12CC3CC(CC(C3)C1)C2)NCC12CC3CC(CC(C3)C1)C2
inactive: NCI-H23 16 µM | CAKI-1 18.7 µM | K562 11.4 µM | A549 13.7 µM | PC-3 14.9 µM | HT-29 13.6 µM | OVCAR-4 14.4 µM | IGROV-1 15.9 µM | MOLT-4 3.1 µM | SF-539 17.7 µM | HOP-92 16.3 µM | SNB-75 20.8 µM | 786-0 29.9 µM | ACHN 13.3 µM | MDA-MB-435 13.8 µM | UACC-62 13.3 µM | MCF7 29.7 µM | MDA-MB-231 2.12 µM | HL-60 11 µM | HCT-116 22.4 µM | TK-10 18.8 µM | DU-145 16.9 µM | Hs-578T 23.4 µM | OVCAR-8 18 µM | KM12 14.1 µM | SN12C 15.7 µM | NCI/ADR-RES 17.1 µM | SK-MEL-5 20.2 µM | NCI-H226 20.9 µM | SW-620 17.5 µM | U-251 14.3 µM | OVCAR-3 16.1 µM | SF-295 14.2 µM | SK-MEL-2 22.3 µM | M14 18.2 µM | NCI-H522 15.1 µM | OVCAR-5 17.7 µM | UACC-257 14.6 µM | A498 25.5 µM | SF-268 37.7 µM | UO-31 18.2 µM | HOP-62 32.1 µM | NCI-H460 29.2 µM | T47D 17.9 µM | RXF 393 > 100 µM | COLO 205 19.2 µM | RPMI-8226 2.33 µM | SK-OV-3 17 µM | SK-MEL-28 20.7 µM | SNB-19 19.2 µM | Malme-3M 16.8 µM
12.2 µM: HCT-15

O=c1c2cc(Br)ccc2ncn1COCc1ccccc1
inactive: K562 54.6 µM | EKVX 88.3 µM | A549 52.1 µM | OVCAR-4 > 100 µM | IGROV-1 56.2 µM | MOLT-4 42.8 µM | SF-539 > 100 µM | HOP-92 > 100 µM | 786-0 70.3 µM | ACHN 23.8 µM | LOX IMVI 38.7 µM | MDA-MB-435 > 100 µM | UACC-62 80.5 µM | MCF7 37.1 µM | HL-60 > 10 µM | HCT-116 61.8 µM | TK-10 96.6 µM | DU-145 > 100 µM | HCC 2998 > 100 µM | KM12 52.6 µM | SK-MEL-5 31 µM | SW-620 > 100 µM | U-251 > 100 µM | OVCAR-3 > 100 µM | SF-295 > 100 µM | SK-MEL-2 > 100 µM | SR 56.5 µM | M14 97.7 µM | OVCAR-5 > 100 µM | UACC-257 > 100 µM | A498 > 100 µM | UO-31 24.1 µM | RXF 393 51.5 µM | COLO 205 93.8 µM | SK-OV-3 > 100 µM | SK-MEL-28 > 100 µM | SNB-19 45.6 µM | CCRF-CEM 71 µM
64 µM: HCT-15
